Experimental data published in US20220323406A1, “METHODS AND COMPOSITIONS FOR DIFFERENTIATING STEM CELLS” (Massachusetts Institute of Technology, priority 2019, published 2022).

Key:
[1] = system: ENR+CD organoids (ISC to Paneth cell differentiation); assay: Primary screen: basal (non-stimulated) lysozyme secretion LYZ.NS, 2.5-D 384-well ENR+CD organoid differentiation; type: cell-based, mouse
Text: (§1) High-throughput screening.

[2] = system: ENR+CD organoids (ISC to Paneth cell differentiation); assay: Primary screen: CCh-stimulated lysozyme secretion LYZ.S, 2.5-D 384-well ENR+CD organoid differentiation; type: cell-based, mouse; conditions: primary screen
Text: as §1

[3] = system: ENR+CD organoids; assay: Primary screen: ATP (CellTiter-Glo 3D, CTG) cell number/viability, 2.5-D 384-well ENR+CD organoids;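 also: compounds given at plating and again on day 3 over a 6-day differentiation from ENR+CV stem-cell-enriched precursors, ATP measured on day 6, plate median as control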
[4] = primary screen, dose 0.08 uM, FC relative to plate median
[5] = primary screen, dose 0.08 uM, standard z score
[6] = primary screen, dose 0.40 uM, FC relative to plate median
[7] = primary screen, dose 0.40 uM, standard z score
[8] = primary screen, dose 2.00 uM, FC relative to plate median
[9] = primary screen, dose 2.00 uM, standard z score
[10] = primary screen, dose 10.00 uM, FC relative to plate median
[11] = primary screen, dose 10.00 uM, standard z score
[12] = dose 0.08 uM, FC relative to plate median
[13] = dose 0.40 uM, FC relative to plate median
[14] = dose 2.00 uM, FC relative to plate median
[15] = dose 10.00 uM, FC relative to plate median
[16] = primary screen, standard z score, dose 0.08 uM
[17] = primary screen, standard z score, dose 0.40 uM
[18] = primary screen, standard z score, dose 2.00 uM
[19] = primary screen, standard z score, dose 10.00 uM
[20] = primary screen; dose 0.08 uM; FC vs plate median
[21] = primary screen; dose 0.40 uM; FC vs plate median
[22] = primary screen; dose 2.00 uM; FC vs plate median
[23] = primary screen; dose 10.00 uM; FC vs plate median

Row | Compound | Dose.FC.LYZ.NS ([1]; primary screen, dose 0.08 uM) | Dose.FC.LYZ.NS ([1]; primary screen, dose 0.40 uM) | Dose.FC.LYZ.NS ([1]; primary screen, dose 2.00 uM) | Dose.FC.LYZ.NS ([1]; primary screen, dose 10.00 uM) | Dose.FC.LYZ.S ([2]; dose 0.08 uM) | Dose.FC.LYZ.S ([2]; dose 0.40 uM) | Dose.FC.LYZ.S ([2]; dose 2.00 uM) | Dose.FC.LYZ.S ([2]; dose 10.00 uM) | Dose.FC.CTG ([3]; primary screen, dose 0.08 uM) | Dose.FC.CTG ([3]; primary screen, dose 0.40 uM) | Dose.FC.CTG ([3]; primary screen, dose 2.00 uM) | Dose.FC.CTG ([3]; primary screen, dose 10.00 uM) | Z.LYZ.NS [1, 16] | Z.LYZ.NS [1, 17] | Z.LYZ.NS [1, 18] | Z.LYZ.NS [1, 19] | other results
1 | O=c1ncccn1[C@@H]1O[C@H](CO)[C@@H](O)[C@H]1O [Zebularine] | 0.026 log2 fold change | 0.009 log2 fold change | 0.095 log2 fold change | 0.086 log2 fold change | 0.092 log2 fold change | 0.077 log2 fold change | 0.051 log2 fold change | 0.102 log2 fold change | 0.035 log2 fold change | 0.000 log2 fold change | −0.089 log2 fold change | −0.167 log2 fold change |  |  |  |  | Z.LYZ.NS (standard z score) ([1]; primary screen, dose 0.08 uM): 0.223; Z.LYZ.NS (standard z score) ([1]; primary screen, dose 0.40 uM): 0.075; Z.LYZ.NS (standard z score) ([1]; primary screen, dose 2.00 uM): 0.828; Z.LYZ.NS (standard z score) ([1]; primary screen, dose 10.00 uM): 0.749
2 | COc1c(C)c(C(=O)c2ccc(N)c(C(=O)[O-])c2)n2ccccc12.[Na+] [SSR128129E] |  |  |  |  |  |  |  |  |  |  |  |  |  |  |  |  | Dose.FC.LYZ.NS [1, 4]: 0.093 log2 fold change; Z.LYZ.NS [1, 5]: 0.807; Dose.FC.LYZ.NS [1, 6]: 0.039 log2 fold change; Z.LYZ.NS [1, 7]: 0.339; Dose.FC.LYZ.NS [1, 8]: 0.030 log2 fold change; Z.LYZ.NS [1, 9]: 0.257; Dose.FC.LYZ.NS [1, 10]: −0.098 log2 fold change; Z.LYZ.NS [1, 11]: −0.850; Dose.FC.LYZ.S [2, 12]: 0.086 log2 fold change; Dose.FC.LYZ.S [2, 13]: 0.122 log2 fold change; Dose.FC.LYZ.S [2, 14]: 0.023 log2 fold change; Dose.FC.LYZ.S [2, 15]: −0.095 log2 fold change; Dose.FC.CTG [3, 4]: 0.088 log2 fold change; Z.CTG [3, 5]: 0.210; Dose.FC.CTG [3, 6]: 0.228 log2 fold change; Z.CTG [3, 7]: 0.545; Dose.FC.CTG [3, 8]: 0.122 log2 fold change; Z.CTG [3, 9]: 0.291; Dose.FC.CTG [3, 10]: −0.026 log2 fold change; Z.CTG [3, 11]: −0.063
3 | CCOc1nc2cccc(C(=O)O)c2n1Cc1ccc(-c2ccccc2-c2nnn[nH]2)cc1 [Candesartan] | 0.013 log2 fold change | −0.015 log2 fold change | 0.007 log2 fold change | −0.051 log2 fold change | −0.015 log2 fold change | −0.032 log2 fold change | −0.092 log2 fold change | −0.075 log2 fold change | −0.003 log2 fold change | −0.125 log2 fold change | −0.198 log2 fold change | −0.253 log2 fold change | 0.113 | −0.128 | 0.065 | −0.442 | 
4 | C[C@]12CC[C@@H]3c4ccc(O)cc4C[C@@H](CCCCCCCCC[S+]([O-])CCCC(F)(F)C(F)(F)F)[C@H]3[C@@H]1CC[C@@H]2O (stereo partly drawn) [Fulvestrant] | 0.057 log2 fold change | −0.050 log2 fold change | 0.000 log2 fold change | −0.043 log2 fold change | 0.051 log2 fold change | −0.049 log2 fold change | −0.024 log2 fold change | −0.150 log2 fold change | 0.119 log2 fold change | −0.063 log2 fold change | 0.142 log2 fold change | −0.204 log2 fold change | 0.500 | −0.432 | 0.003 | −0.376 | 
5 | O=C(N/N=C/c1ccc(O)c(O)c1)c1cc2ccccc2cc1O [Dynasore] | 0.049 log2 fold change | −0.020 log2 fold change | 0.036 log2 fold change | 0.048 log2 fold change | 0.078 log2 fold change | 0.122 log2 fold change | −0.024 log2 fold change | 0.041 log2 fold change | −0.248 log2 fold change | −0.253 log2 fold change | −0.152 log2 fold change | −0.011 log2 fold change | 0.431 | −0.176 | 0.314 | 0.414 | 
6 | O=C(NOCC1CC1)c1ccc(F)c(F)c1Nc1ccc(I)cc1Cl [PD184352 (CI-1040)] |  |  |  |  |  |  |  |  |  |  |  |  |  |  |  |  | Z.LYZ.NS [1, 5]: −0.162; Z.LYZ.NS [1, 7]: −0.458; Z.LYZ.NS [1, 9]: −1.176; Z.LYZ.NS [1, 11]: −1.011; Dose.FC.LYZ.NS [1, 20]: −0.019 log2 fold change; Dose.FC.LYZ.NS [1, 21]: −0.053 log2 fold change; Dose.FC.LYZ.NS [1, 22]: −0.135 log2 fold change; Dose.FC.LYZ.NS [1, 23]: −0.116 log2 fold change; Dose.FC.LYZ.S ([2]; dose 0.08 uM, FC vs plate median): −0.019 log2 fold change; Dose.FC.LYZ.S ([2]; dose 0.40 uM, FC vs plate median): −0.047 log2 fold change; Dose.FC.LYZ.S ([2]; dose 2.00 uM, FC vs plate median): −0.178 log2 fold change; Dose.FC.LYZ.S ([2]; dose 10.00 uM, FC vs plate median): −0.239 log2 fold change; Z.CTG [3, 5]: 0.874; Z.CTG [3, 7]: 0.624; Z.CTG [3, 9]: −0.506; Z.CTG [3, 11]: −1.901; Dose.FC.CTG [3, 20]: 0.366 log2 fold change; Dose.FC.CTG [3, 21]: 0.261 log2 fold change; Dose.FC.CTG [3, 22]: −0.212 log2 fold change; Dose.FC.CTG [3, 23]: −0.796 log2 fold change
7 | CCN(CC)C(=O)/C(C#N)=C/c1cc(O)c(O)c([N+](=O)[O-])c1 [Entacapone] | 0.136 log2 fold change | 0.012 log2 fold change | 0.085 log2 fold change | 0.100 log2 fold change | 0.020 log2 fold change | 0.024 log2 fold change | 0.072 log2 fold change | 0.027 log2 fold change | −0.115 log2 fold change | −0.065 log2 fold change | 0.206 log2 fold change | −0.391 log2 fold change | 1.183 | 0.102 | 0.744 | 0.870 | 
8 | Nc1nc(N)c2nc(-c3cccc(O)c3)c(-c3cccc(O)c3)nc2n1 [TG100-115] | 0.208 log2 fold change | −0.026 log2 fold change | 0.003 log2 fold change | −0.026 log2 fold change | 0.073 log2 fold change | 0.032 log2 fold change | −0.019 log2 fold change | −0.100 log2 fold change | −0.256 log2 fold change | 0.066 log2 fold change | −0.013 log2 fold change | −0.116 log2 fold change |  |  |  |  | Z.LYZ.NS (standard z score) ([1]; primary screen, dose 0.08 uM): 1.812; Z.LYZ.NS (standard z score) ([1]; primary screen, dose 0.40 uM): −0.223; Z.LYZ.NS (standard z score) ([1]; primary screen, dose 2.00 uM): 0.025; Z.LYZ.NS (standard z score) ([1]; primary screen, dose 10.00 uM): −0.223; Z.CTG (standard z score) ([3]; primary screen, dose 0.08 uM): −0.611; Z.CTG (standard z score) ([3]; primary screen, dose 0.40 uM): 0.158; Z.CTG (standard z score) ([3]; primary screen, dose 2.00 uM): −0.031; Z.CTG (standard z score) ([3]; primary screen, dose 10.00 uM): −0.277
9 | CCc1c2c(nc3ccc(OC(=O)N4CCC(N5CCCCC5)CC4)cc13)-c1cc3c(c(=O)n1C2)COC(=O)[C@]3(O)CC [Irinotecan] |  |  |  |  |  |  |  |  |  |  |  |  |  |  |  |  | Dose.FC.LYZ.NS (log2 fold change) ([1]; primary screen, dose 0.08 uM): −0.031; Z.LYZ.NS (standard z score) ([1]; primary screen, dose 0.08 uM): −0.272; Dose.FC.LYZ.NS (log2 fold change) ([1]; primary screen, dose 0.40 uM): −0.072; Z.LYZ.NS (standard z score) ([1]; primary screen, dose 0.40 uM): −0.630; Dose.FC.LYZ.NS (log2 fold change) ([1]; primary screen, dose 2.00 uM): −0.170; Z.LYZ.NS (standard z score) ([1]; primary screen, dose 2.00 uM): −1.476; Dose.FC.LYZ.NS (log2 fold change) ([1]; primary screen, dose 10.00 uM): −0.163; Z.LYZ.NS (standard z score) ([1]; primary screen, dose 10.00 uM): −1.417; Dose.FC.LYZ.S (log2 fold change) ([2]; dose 0.08 uM): −0.004; Dose.FC.LYZ.S (log2 fold change) ([2]; dose 0.40 uM): −0.145; Dose.FC.LYZ.S (log2 fold change) ([2]; dose 2.00 uM): −0.247; Dose.FC.LYZ.S (log2 fold change) ([2]; dose 10.00 uM): −0.251; Dose.FC.CTG (log2 fold change) ([3]; primary screen, dose 0.08 uM): −0.111; Dose.FC.CTG (log2 fold change) ([3]; primary screen, dose 0.40 uM): −0.784; Dose.FC.CTG (log2 fold change) ([3]; primary screen, dose 2.00 uM): −0.785; Dose.FC.CTG (log2 fold change) ([3]; primary screen, dose 10.00 uM): −1.235
10 | CC(C)Oc1ccc(-c2cnc3c(-c4ccnc5ccccc45)cnn3c2)cc1 [DMH1] | 0.018 log2 fold change | 0.026 log2 fold change | 0.014 log2 fold change | −0.075 log2 fold change | 0.078 log2 fold change | 0.054 log2 fold change | 0.035 log2 fold change | −0.092 log2 fold change | −0.031 log2 fold change | −0.079 log2 fold change | −0.002 log2 fold change | −0.001 log2 fold change | 0.155 | 0.231 | 0.124 | −0.657 | Z.CTG [3, 16]: −0.075; Z.CTG [3, 17]: −0.188; Z.CTG [3, 18]: −0.004; Z.CTG [3, 19]: −0.003
11 | C#CCC(Cc1cnc2nc(N)nc(N)c2n1)c1ccc(C(=O)N[C@@H](CCC(=O)O)C(=O)O)cc1 (stereo partly drawn) [Pralatrexate] |  |  |  |  |  |  |  |  |  |  |  |  |  |  |  |  | Dose.FC.LYZ.NS [1, 4]: −0.135 log2 fold change; Z.LYZ.NS [1, 5]: −1.173; Dose.FC.LYZ.NS [1, 6]: −0.162 log2 fold change; Z.LYZ.NS [1, 7]: −1.413; Dose.FC.LYZ.NS [1, 8]: −0.154 log2 fold change; Z.LYZ.NS [1, 9]: −1.345; Dose.FC.LYZ.NS [1, 10]: −0.148 log2 fold change; Z.LYZ.NS [1, 11]: −1.292; Dose.FC.LYZ.S [2, 12]: −0.183 log2 fold change; Dose.FC.LYZ.S [2, 13]: −0.176 log2 fold change; Dose.FC.LYZ.S [2, 14]: −0.173 log2 fold change; Dose.FC.LYZ.S [2, 15]: −0.215 log2 fold change; Dose.FC.CTG [3, 4]: −0.649 log2 fold change; Dose.FC.CTG [3, 6]: −0.853 log2 fold change; Dose.FC.CTG [3, 8]: −0.681 log2 fold change; Dose.FC.CTG [3, 10]: −0.922 log2 fold change
